# From patent publication US4199598A, “Method of treating noradrenaline dysfunction or for dopamine-β-hydroxylase inhibition” (Richter Gedeon Vegyeszeti Gyar Rt., priority 1976, dated 1980)
# Key:
# dopamine-β-hydroxylase [1] = experiment: Noradrenaline content of heart (dopamine-β-hydroxylase inhibiting effect); type: in vivo, male Wister rats; details: rats, i.p., 4 hours; for response vs control in vivo at 100 mg/kg / response vs control in vivo at 200 mg/kg: Rattus norvegicus, ip, ± Standard Error, read-out: Amine level, heart NA (noradrenaline)
# Protocol: (§1) The dopamine-β-hydroxylase inhibiting effects of the compounds according to the invention were examined by the following tests:
# (§2) The tests were performed on male Wister rats weighing 150 to 200 g. The dopamine-β-hydroxylase inhibiting effects of the compounds were evaluated by determining the change of noradrenaline, dopamine and adrenaline levels of the cerebrum, heart, spleen and adrenal gland. The serotonine and 5-hydroxy-indolyl-acetic acid levels of the cerebrum were also determined. The measurements were performed as follows:
# (§3) The animals were decapitated, the cerebrum, heart, spleen and adrenal gland were removed quickly, and the organs were frozen by placing them onto a metal sheet cooled with dry ice. The frozen organs were stored for a maximum of one night at -20° C.
# (§4) Determination of the noradrenaline content of heart and spleen
# (§5) The organs were weighed in frozen state and then homogenized in 5.0 ml of 0.4 N perchloric acid containing 0.05% of EDTA-Na2 and 0.1% of Na2 S2 O5. The homogenized mixtures were centrifuged as described above for the treatment of adrenal gland, the supernatants were decanted, and the pH was adjusted to 8.0±0.1 with a 0.1 molar tris buffer containing 20 g/l of NaOH and 25 g/l of EDTA-Na2. 100 mg of prepared Al2 O3 (Anton et al: J. Pharm. Ther., Vol. 138, p. 360, 1962) were added to the samples, and the mixtures were shaken mechanically for 20 minutes. Thereafter the Al2 O3 were washed with 2.10 ml of distilled water, and the noradrenaline was eluted with 1.0 ml of 0.05 N perchloric acid. 0.5 ml samples of the eluate were applied for the determination of noradrenaline.
# (§6) Noradrenaline was determined according to the method of Shellenberger et al (Anal. Biochem., Vol. 39, p. 356, 1971), with the following modifications of the basic procedure: 0.5 ml of 0.1 molar Na-K-phosphate buffer, containing 9 g/l of EDTA-Na2, were added to 0.5 ml of the eluate, and the catecholamines (noradrenaline in the examination of heart and spleen and noradrenaline and dopamine in the examination of the cerebrum) were oxidized with 0.1 ml of a 0.1 N iodine solution in 5% potassium iodide. […] Thereafter the samples were placed for 5 minutes in a drying oven heated to 100° C., and then the samples were cooled with ice water. The fluorescence of noradrenaline was measured with an OPTON spectrophotometer at wavelengths of 390 nm (excitation) and 490 nm (emission).
# (§7) In the tests disulfiram, 2,2-dipyridyl, bis(1-methyl-4-homopiperazinyl-thiocarbonyl)-disulfide, sodium diethyldithiocarbamate and N-phenyl-N'-(2-thiazolyl)-thiourea were used as reference substances. The values indicated in Table 1 are percentages in relation to the amine levels of the controls measured in the same tests (± Standard Error). The statistical calculations were performed on a TPA/i type computer, using Student's test.
# Toxicity (LD50), rats = details: rat, in vivo, ip
# dopamine-β-hydroxylase [2] = experiment: Adrenaline content of adrenal gland (dopamine-β-hydroxylase inhibiting effect); type: in vivo, male Wister rats; details: rats, i.p., 4 hours; for response vs control in vivo at 100 mg/kg / response vs control in vivo at 200 mg/kg: Rattus norvegicus, ip, ± Standard Error, read-out: Amine level, adrenal gland AD (adrenaline)
# Protocol: as §1, §2, §3
# Determination of the adrenaline content of adrenal gland
# The adrenal glands were freed from fat and homogenized in 3.0 ml of ice-cold 0.4 N perchloric acid. The homogenized mixtures were centrifuged for 10 minutes at 0° C. with a speed of 3200 r.p.m. on a Janetzky K-70 type centrifuge. 0.05 ml samples were taken from the supernatant, and the adrenaline level was determined directly by the method of Laverty et al (Anal. Biochem., Vol. 22, p. 269, 1968).
# as §7
# dopamine-β-hydroxylase [3] = experiment: Noradrenaline, dopamine, serotonine and 5-hydroxy-indolylacetic acid contents of cerebrum (dopamine-β-hydroxylase inhibiting effect); type: in vivo, male Wister rats; details: rats, i.p., 4 hours; for response vs control in vivo at 100 mg/kg / response vs control in vivo at 200 mg/kg: Rattus norvegicus, ip, ± Standard Error
# Protocol: as §1, §2, §3, §6
# Determination of the noradrenaline, dopamine, serotonine and 5-hydroxy-indolylacetic acid contents of cerebrum
# The brains were homogenized in 10 parts by volume of 0.4 N perchloric acid. The homogenized mixture was stored at -20° C. overnight; thereafter it was thawed and centrifuged as described above. A sample of homogenized mixture corresponding to 0.5 g of brain was removed, the pH of the sample was adjusted to 8.0±0.1 with 0.1 molar tris-buffer of the above composition, and the sample was processed as described above for the determination of the noradrenaline content of heart and spleen, with the difference that 1.5 ml of 0.05 N perchloric acid were applied as eluting agent. 0.5 ml of the eluate were applied to determine the noradrenaline and dopamine content. The measurement was performed as described above, with the difference that samples of 0.5 ml were applied for the recording of the fluorescence of noradrenaline. The residue was placed for 50 minutes into a drying oven heated to 100° C.; thereafter the sample was cooled with ice water, and the fluorescence of dopamine was recorded at wavelengths of 325 nm (excitation) and 380 nm (emission).
# In a further test series the serotonine and 5-hydroxy-indolylacetic acid contents were also determined, in addition to the determination of the noradrenaline and dopamine contents, from the same sample. In this instance the brains were homogenized in 10 ml of 75% ethanol, 0.2 ml of EDTA-Na2 and 5% of ascorbic acid were added to the homogenized mixtures, and the homogenized mixtures were maintained at -20° C. overnight. The mixtures were then centrifuged as described above, and 5.0 ml samples of the supernatant were removed. The samples were diluted with equal volumes of distilled water, and poured onto ion-exchange columns of 0.5×1.5 cm dimensions, filled with buffered Amberlite CG-30 (200 to 400 mesh). The columns were washed with 5 ml of distilled water followed with 1.0 ml of 0.2 N hydrochloric acid, and the first effluent and the aqueous wash were collected for the determination of 5-hydroxy-indolylacetic acid. Elution was continued with further 1.2 ml of 0.2 N hydrochloric acid in order to remove noradrenaline, dopamine and serotonine. Samples of 0.3 ml were used for the determinations. […]
# dopamine-β-hydroxylase [4] = experiment: Noradrenaline content of spleen (dopamine-β-hydroxylase inhibiting effect); type: in vivo, male Wister rats; details: rats, i.p., 4 hours; for response vs control in vivo at 100 mg/kg / response vs control in vivo at 200 mg/kg: Rattus norvegicus, ip, ± Standard Error, read-out: Amine level, spleen NA (noradrenaline)
# Protocol: as §1, §2, §3, §4, §5, §6, §7
# dopamine-β-hydroxylase [5] = details: in vitro, in words, prior art; cited from earlier work
# in vivo = details: mouse, ip
# dopamine-β-hydroxylase [6] = details: in words, prior art; cited from earlier work
# [7] = read-out: Amine level, cerebrum DA (dopamine)
# [8] = read-out: Amine level, cerebrum NA (noradrenaline)
# [9] = read-out: Amine level, cerebrum SE (serotonine)
# [10] = read-out: Level, cerebrum 5-HIAA (5-hydroxy-indolylacetic acid)
Structure (SMILES),response vs control in vivo at 200 mg/kg (dopamine-β-hydroxylase [1]),response vs control in vivo at 200 mg/kg (dopamine-β-hydroxylase [2]),LD50 (in vivo),response vs control in vivo at 200 mg/kg (dopamine-β-hydroxylase [3]; [7]),response vs control in vivo at 200 mg/kg (dopamine-β-hydroxylase [3]; [8]),response vs control in vivo at 200 mg/kg (dopamine-β-hydroxylase [3]; [9]),response vs control in vivo at 200 mg/kg (dopamine-β-hydroxylase [3]; [10]),response vs control in vivo at 200 mg/kg (dopamine-β-hydroxylase [4]),also measured
"c1ccc(-c2ccccn2)nc1 [2,2-D, 2,2-dipyridyl, reference compound]",–,–,–,–,–,–,–,–,"Amine level, heart NA (noradrenaline) (dopamine-β-hydroxylase [1]; 37.5 mg/kg): 104 percentages in relation to the controls; Amine level, heart NA (noradrenaline) (dopamine-β-hydroxylase [1]; 75 mg/kg): 58 percentages in relation to the controls; LD50 (Toxicity (LD50), rats): 150 mg/kg; Amine level, adrenal gland AD (adrenaline) (dopamine-β-hydroxylase [2]; 37.5 mg/kg): 80 percentages in relation to the controls; Amine level, adrenal gland AD (adrenaline) (dopamine-β-hydroxylase [2]; 75 mg/kg): 63 percentages in relation to the controls; Amine level, cerebrum DA (dopamine) (dopamine-β-hydroxylase [3]; 37.5 mg/kg): 116 percentages in relation to the controls; Amine level, cerebrum NA (noradrenaline) (dopamine-β-hydroxylase [3]; 37.5 mg/kg): 79.5 percentages in relation to the controls; Amine level, cerebrum DA (dopamine) (dopamine-β-hydroxylase [3]; 75 mg/kg): 95 percentages in relation to the controls; Amine level, cerebrum NA (noradrenaline) (dopamine-β-hydroxylase [3]; 75 mg/kg): 41.2 percentages in relation to the controls; Amine level, cerebrum SE (serotonine) (dopamine-β-hydroxylase [3]; 75 mg/kg): 100 percentages in relation to the controls; Amine level, spleen NA (noradrenaline) (dopamine-β-hydroxylase [4]; 37.5 mg/kg): 100 percentages in relation to the controls; dopamine-β-hydroxylase inhibition in vitro (dopamine-β-hydroxylase [5]): effective under in vitro conditions"
"OCCNC1=C(C(=S)S)CCC1 [Compound M-4, 2-(N-hydroxyethyl)-amino-cyclopent-1-ene-dithiocarboxylic acid]",75.4 ± 8.3%,93.4 ± 7.5%,~800 mg/kg,126 ± 2.5%,41.6 ± 2%,122 ± 10.5%,132 ± 12.6%,98.4 ± 17.1%,response vs control in vivo at 100 mg/kg (dopamine-β-hydroxylase [1]): 85 ± 9.7%; response vs control in vivo at 100 mg/kg (dopamine-β-hydroxylase [2]): 82.7 ± 4.2%; response vs control in vivo at 100 mg/kg (dopamine-β-hydroxylase [3]; [7]): 110 ± 3.5%; response vs control in vivo at 100 mg/kg (dopamine-β-hydroxylase [3]; [8]): 65.4 ± 4.9%; response vs control in vivo at 100 mg/kg (dopamine-β-hydroxylase [3]; [9]): 110 ± 3.3%; response vs control in vivo at 100 mg/kg (dopamine-β-hydroxylase [4]): 81.4 ± 9.4%
"NC(CCCNC1=C(C(=S)S)CCC1)C(=O)O (centres unmarked) [Compound M-5, 2-[N-(4-carboxy-4-amino)-butyl]-amino-cyclopent-1-ene-dithiocarboxylicacid]",75 ± 10.6%,70.7 ± 3.3%,~700 mg/kg,102 ± 1.8%,69.3 ± 2.9%,114 ± 3.6%,141 ± 10%,67.1 ± 6.2%,response vs control in vivo at 100 mg/kg (dopamine-β-hydroxylase [1]): 98.4 ± 5.4%; response vs control in vivo at 100 mg/kg (dopamine-β-hydroxylase [2]): 69.4 ± 4%; response vs control in vivo at 100 mg/kg (dopamine-β-hydroxylase [3]; [7]): 100 ± 4.8%; response vs control in vivo at 100 mg/kg (dopamine-β-hydroxylase [3]; [8]): 81.7 ± 4.5%; response vs control in vivo at 100 mg/kg (dopamine-β-hydroxylase [3]; [9]): 110 ± 4.1%; response vs control in vivo at 100 mg/kg (dopamine-β-hydroxylase [4]): 76.4 ± 11.1%
"S=C(S)C1=C(NC2CCCCC2)CCC1 [Compound M-6, 2-(N-cyclohexyl)-amino-cyclopent-1-ene-dithiocarboxylic acid]",92.7 ± 6.5%,94.9 ± 3.4%,> 1000 mg/kg,107 ± 5.6%,40.7 ± 1.1%,101 ± 5.1%,150 ± 8.5%,98.1 ± 13.7%,–
"NC(CCCCNC1=C(C(=S)S)CCC1)C(=O)O (centres unmarked) [Compound M-7, 2-[N-(5-carboxy-5-amino)-pentyl]-amino-cyclopent-1-ene-dithiocarboxylic ac id]",95.6 ± 8.5%,79.5 ± 6.5%,~900 mg/kg,106 ± 7.2%,65.8 ± 3%,99.7 ± 6.8%,153 ± 13%,85.3 ± 17.7%,–
"S=C(S)C1=C(Nc2ccccc2)CCC1 [Compound M-8, 2-(N-phenyl)-amino-cyclopent-1-ene-dithiocarboxylic acid]",99.9 ± 2.9%,88.4 ± 4.6%,> 1000 mg/kg,97.3 ± 7.1%,75.6 ± 4.6%,102 ± 7.9%,135 ± 10%,71.3 ± 12.8%,–
"CN1CCCN(C(=S)SSC(=S)N2CCCN(C)CC2)CC1 [FLA-63, bis(1-methyl-4-homopiperazinyl)-thiocarbonyl-disulfide]",–,–,–,–,–,–,–,–,dopamine-β-hydroxylase inhibition in vivo (dopamine-β-hydroxylase [6]): one of the most potent dopamine-β-hydroxylase inhibitors in vivo
